Results taken from PMC8838847, “Design, Synthesis and Cytotoxicity of Thiazole-Based Stilbene Analogs as Novel DNA Topoisomerase IB Inhibitors” (Molecules, 2022).

Assays:
[1] = tested on: human breast cancer (MCF-7) cells; assay: MTT cytotoxicity assay, MCF-7; format: cell-based; settings: five doses 0.01-100 µM
Procedure: (§1) The cytotoxicity of the desired compounds was assessed through MTT assay against two human cancer cell lines, human breast cancer (MCF-7) and colon cancer (HCT116), and one normal cell line, human embryonic kidney 293T (HEK293T). CPT and etoposide (VP-16) were used as positive controls. The compounds were incubated with cells for 72 h in a five-dose assay ranging from 0.01 to 100 µΜ. After the drug treatments, MTT solution was added to test the percentage growth of tumor cells.
(§2) The cells were cultured on RPMI 1640 Medium at 37 °C in a humidified atmosphere with 5% CO2. The cytotoxicities of the target compounds were evaluated through MTT assay against two human cancer cell lines (human breast cancer MCF-7 and human colon cancer HCT116). For the compound treatment experiments, the cancer cells were treated with the compounds (pre-dissolved in DMSO) via a five-dose assay ranging from 10^−8 to 10^−4 M. After incubation for 72 h at 37 °C, MTT solution (20 μL, 2.5 mg/mL) in PBS (PBS without MTT as the blank) was added to each well of the culture plate. After incubation for 4 h, the formazan crystal formed in the well was dissolved in 100 μL of DMSO for an optical density of 570 nm. The IC50 value was calculated using nonlinear regression analysis (GraphPad Prism). Every experiment was conducted three times, independently.

[2] = tested on: human colon cancer (HCT116) cells; assay: MTT cytotoxicity assay, HCT116; format: cell-based; settings: five doses 0.01-100 µM
Procedure: as §1, §2

calf thymus Top1 = target: T1, calf thymus Top1 (Bos taurus, UniProt F1MN93); assay: Top1-mediated DNA relaxation assay; format: biochemical; settings: compounds at 50 µM; semi-quantitative, relative to CPT at 50 µM
T1 construct: 1 unit of calf thymus Top1; from tissue; host or cells: calf thymus
T1 sequence (F1MN93 1-767): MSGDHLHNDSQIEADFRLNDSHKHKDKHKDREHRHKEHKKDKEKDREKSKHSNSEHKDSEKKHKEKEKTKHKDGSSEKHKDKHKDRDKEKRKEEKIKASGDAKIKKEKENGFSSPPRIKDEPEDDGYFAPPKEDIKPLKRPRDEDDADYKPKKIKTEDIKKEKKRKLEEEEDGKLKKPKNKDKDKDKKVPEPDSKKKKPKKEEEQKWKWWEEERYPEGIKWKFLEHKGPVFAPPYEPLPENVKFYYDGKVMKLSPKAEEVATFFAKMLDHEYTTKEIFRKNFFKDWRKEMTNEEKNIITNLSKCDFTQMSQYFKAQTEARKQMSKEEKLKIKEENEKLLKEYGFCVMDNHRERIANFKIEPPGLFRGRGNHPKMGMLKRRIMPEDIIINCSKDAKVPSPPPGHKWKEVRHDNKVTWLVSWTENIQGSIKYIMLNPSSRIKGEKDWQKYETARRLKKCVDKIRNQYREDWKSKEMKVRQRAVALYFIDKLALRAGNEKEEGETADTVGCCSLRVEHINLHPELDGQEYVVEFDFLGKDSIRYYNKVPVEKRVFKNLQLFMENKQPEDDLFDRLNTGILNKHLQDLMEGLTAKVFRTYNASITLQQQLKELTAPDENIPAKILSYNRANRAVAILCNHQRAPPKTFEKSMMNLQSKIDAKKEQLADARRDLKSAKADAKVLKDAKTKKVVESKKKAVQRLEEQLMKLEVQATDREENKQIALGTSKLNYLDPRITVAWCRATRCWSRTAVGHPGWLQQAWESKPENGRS
Procedure: The synthesized compounds 6–37 were evaluated for Top1 inhibitory activity by measurement of the Top1-mediated DNA relaxation assay. The compounds were tested at 50 µΜ using CPT as positive control, and the results were semi-quantitatively expressed relative to CPT at 50 µΜ as follows: ++++, more than 80% activity; +++, between 40% and 79% activity; ++, between 10% and 39% activity; +, less than 10% activity. […] In phenyl A, the 4-position halogen (X) remarkably affected the inhibition against Top1. […] In phenyl B, the introduction of substituents at the 3-position was beneficial for the Top1 inhibition, and the derivatives presented good tolerance of the 3-substituents, since compounds 8 (++++) and 13 (+++) with electron-donating -Me or -OMe and also compound 19 (+++) with electron-withdrawing -Br had good inhibition against Top1. For substituents at the 4-position, the strong electron-withdrawing -CF3 (10, +++) and -F (15, +++) increased the Top1 inhibitory activity compared to compound 6 (R = H), while the weak electron-withdrawing -Cl (17, +) and the electron-donating -Me (9, +) and -OMe (14, +) decreased the activity, with the exception of tert-Bu (11, +++).
As previously mentioned, compound 8 had the best inhibition activity against Top1, and therefore was selected for further investigation. A semi-quantitative Top1-mediated relaxation assay of compound 8 was performed at concentrations of 0.2, 1, 5, 25 and 125 μM.
The compounds were tested for their Top1 inhibitory activity using a Top1-mediated relaxation assay. Briefly, the reaction mixture (20 μL) with 0.5 μg of supercoiled pBR322 DNA in relaxation buffer (10 mM Tris-HCl, pH 7.5, 50 mM KCl, 5 mM MgCl2, 15 μg/mL BSA, 40 μg/mL DTT) was incubated with 1 unit of calf thymus Top1 in the absence or in the presence of the compound for 30 min at 37 °C. Then, the reaction solution was added with 6 × loading buffer (4 μL) and was analyzed using a 0.8% agarose gel in TBE buffer at 4.6 V/cm for 1.5 h. Gel was stained with 1 × GelRed for 30 min and subsequently visualized with a UV transilluminator.

SMILES	IC50 ([1]; Homo sapiens, MCF7, 72 h)	melting point	IC50 ([2]; Homo sapiens, HCT-116, 72 h)	Relaxation Assay (Top1 inhibitory activity) (calf thymus Top1)	IC50 ([2]; 72 h)	IC50 ([1]; 72 h)
Cc1ccccc1/C=C/c1nc(-c2ccc(F)cc2)cs1 [Compound 7, (E)-2-(2-methylstyryl)-4-(4-fluorophenyl)thiazole]	31.4 ± 4.21 µM	74 to 75 °C	6.47 ± 0.62 µM			
CC(C)=CCOc1cccc(/C=C/c2nc(-c3ccc(Br)cc3)cs2)c1 [Compound 36, (E)-4-(4-bromophenyl)-2-(3-((3-methylbut-2-en-1-yl)oxy)styryl)thiazole]	> 100 µM	122 to 123 °C	> 100 µM			
COc1ccc(/C=C/c2nc(-c3ccc(F)cc3)cs2)cc1 [Compound 14, (E)-2-(4-methoxystyryl)-4-(4-fluorophenyl)thiazole]	> 100 µM	124 to 125 °C	> 100 µM	+ (less than 10% activity)		
Fc1ccc(/C=C/c2nc(-c3ccc(Br)cc3)cs2)cc1 [Compound 29, (E)-4-(4-bromophenyl)-2-(4-fluorostyryl)thiazole]	> 100 µM	176 to 178 °C	63.2 ± 6.17 µM			
COc1cc([C@@H]2c3cc4c(cc3[C@@H](O[C@@H]3O[C@@H]5CO[C@@H](C)O[C@H]5[C@H](O)[C@H]3O)[C@H]3COC(=O)[C@H]23)OCO4)cc(OC)c1O [vp-16, etoposide, reference compound]	24.7 ± 3.12 µM		18.9 ± 1.35 µM			
COc1cccc(/C=C/c2nc(-c3ccc(Br)cc3)cs2)c1 [Compound 31, (E)-4-(4-bromophenyl)-2-(3-methoxystyryl)thiazole]	45.8 ± 4.47 µM	112 to 113 °C	40.3 ± 7.8 µM	+ (less than 10% activity)		
Oc1ccc(/C=C/c2nc(-c3ccc(Br)cc3)cs2)cc1 [Compound 35, (E)-4-(2-(4-(4-bromophenyl)thiazol-2-yl)vinyl)phenol]	38 ± 5.82 µM	204 to 205 °C	< 5 µM	+ (less than 10% activity)	2.86 ± 0.46 µM	
Fc1ccc(/C=C/c2nc(-c3ccc(F)cc3)cs2)cc1 [Compound 15, (E)-2-(4-fluorostyryl)-4-(4-fluorophenyl)thiazole]		147 to 149 °C	10.2 ± 1.07 µM			
Cc1cccc(/C=C/c2nc(-c3ccc(Cl)cc3)cs2)c1 [Compound 22, (E)-4-(4-chlorophenyl)-2-(3-methylstyryl)thiazole]	> 100 µM	133 to 134 °C	> 100 µM			
CC(C)(C)c1ccc(/C=C/c2nc(-c3ccc(Br)cc3)cs2)cc1 [Compound 28, (E)-4-(4-bromophenyl)-2-(4-(tert-butyl)styryl)thiazole]		89 to 90 °C		+ (less than 10% activity)		
Fc1ccc(-c2csc(/C=C/c3ccccc3)n2)cc1 [Compound 6, (E)-4-(4-fluorophenyl)-2-styrylthiazole]	22.2 ± 5.01 µM	129 to 130 °C	5.78 ± 1.89 µM			
Fc1ccc(-c2csc(/C=C/c3ccc(C(F)(F)F)cc3)n2)cc1 [Compound 10, (E)-2-(4-(trifluoromethyl)styryl)-4-(4-fluorophenyl)thiazole]	17.3 ± 1.62 µM	111 to 113 °C	22.6 ± 2.41 µM			
Fc1ccc(-c2csc(/C=C/c3ccccc3Cl)n2)cc1 [Compound 16, (E)-2-(2-chlorostyryl)-4-(4-fluorophenyl)thiazole]	15.2 ± 1.18 µM	97 to 98 °C	8.42 ± 1.1 µM			
Fc1ccc(-c2csc(/C=C/c3cccc(Br)c3)n2)cc1 [Compound 19, (E)-2-(3-bromostyryl)-4-(4-fluorophenyl)thiazole]	11.5 ± 1.74 µM	142 to 144 °C	6.95 ± 0.33 µM			
Fc1ccc(-c2csc(/C=C/c3ccccc3Br)n2)cc1 [Compound 18, (E)-2-(2-bromostyryl)-4-(4-fluorophenyl)thiazole]	20 ± 2.07 µM	94 to 95 °C	12.3 ± 1.1 µM			
FC(F)(F)c1ccc(/C=C/c2nc(-c3ccc(Br)cc3)cs2)cc1 [Compound 27, (E)-4-(4-bromophenyl)-2-(4-(trifluoromethyl)styryl)thiazole]	24.3 ± 5.62 µM	102 to 103 °C	34.9 ± 5.66 µM			
Oc1cccc(/C=C/c2nc(-c3ccc(Br)cc3)cs2)c1 [Compound 34, (E)-3-(2-(4-(4-bromophenyl)thiazol-2-yl)vinyl)phenol]	22.8 ± 1.4 µM		9.99 ± 0.19 µM	+ (less than 10% activity)		
COc1cccc(/C=C/c2nc(-c3ccc(F)cc3)cs2)c1 [Compound 13, (E)-2-(3-methoxystyryl)-4-(4-fluorophenyl)thiazole]	< 10 µM	115 to 116 °C	< 5 µM		4.99 ± 0.8 µM	9.85 ± 0.47 µM
Cc1cccc(/C=C/c2nc(-c3ccc(Br)cc3)cs2)c1 [Compound 26, (E)-4-(4-bromophenyl)-2-(3-methylstyryl)thiazole]	10.8 ± 2.42 µM	174 to 176 °C				
COc1ccccc1/C=C/c1nc(-c2ccc(F)cc2)cs1 [Compound 12, (E)-2-(2-methoxystyryl)-4-(4-fluorophenyl)thiazole]	49.5 ± 9.08 µM	73 to 74 °C	17.8 ± 1.16 µM			
COc1ccccc1/C=C/c1nc(-c2ccc(Cl)cc2)cs1 [Compound 24, (E)-4-(4-chlorophenyl)-2-(2-methoxystyryl)thiazole]	> 100 µM	93 to 95 °C	49.4 ± 3.49 µM			
